Consider seven molecules from US5681563A, “7-vinylidene cephalosporins and methods of using the same” (Research Corporation Technologies, Inc., priority 1996, dated 1997).

Where a name gives a salt, the structure may show the parent alone. Read-outs that look alike come from different tables or passages of the source.

The test deals with β-lactamase of Enterobacter cloacae P99 (Enterobacter cloacae, UniProt P05364). The experiment in a line: P99 β-lactamase inhibitory activity (loss of nitrocefin hydrolysis by free enzyme). In kind it is biochemical. The method, then:
The activity of the present compounds against β-lactamases was determined by measuring the IC50. The IC50 value represents the concentration of inhibitor required to effect a 50% loss of activity of free enzyme. The present 7-vinylidenecephems were evaluated as inhibitors of the β-lactamase of Enterobacter cloacae P99. The IC50 value of each compound was determined as follows. Following a 10 minute incubation of a dilute solution of enzyme (2.56 nM) and inhibitor (<0.64 mM), a […] of this incubation mixture was then further diluted into 1 mL nitrocefin solution, and the rate of hydrolysis was measured during a 1 minute period by monitoring the absorbance of nitrocefin as a function of time.

Setting [1] is: P99 β-lactamase, 10 minute incubation of enzyme (2.56 nM) and inhibitor (<0.64 mM), then dilution into nitrocefin solution, rate over 1 minute, read-out: IC50 (converted).
Setting [2] is: P99 β-lactamase, 10 minute incubation of enzyme (2.56 nM) and inhibitor (<0.64 mM), then dilution into nitrocefin solution, rate over 1 minute.

β-lactamase of Enterobacter cloacae P99, sequence (P05364 21-381): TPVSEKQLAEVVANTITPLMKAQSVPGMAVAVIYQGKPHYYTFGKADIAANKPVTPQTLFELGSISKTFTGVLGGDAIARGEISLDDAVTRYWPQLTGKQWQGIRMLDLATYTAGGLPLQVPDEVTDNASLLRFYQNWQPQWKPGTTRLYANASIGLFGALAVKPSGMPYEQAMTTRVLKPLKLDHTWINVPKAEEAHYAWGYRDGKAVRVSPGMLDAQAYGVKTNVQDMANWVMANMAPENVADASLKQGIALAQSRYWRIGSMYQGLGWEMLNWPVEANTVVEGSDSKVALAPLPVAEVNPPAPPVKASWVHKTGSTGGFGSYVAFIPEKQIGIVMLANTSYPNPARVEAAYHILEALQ

In the case of `C=C=C1C(=O)N2C(C(=O)O)=C(COC(C)=O)CS[C@H]12` [Compound 15, Sodium Salt of 7-Vinylidene Cephalosporanic Acid], the IC50 under setting [1] was 91.8 µM.

On to “7-(2'α-t-butyl-2'β-deuteriovinylidene) cephem sulfone”, for which, under setting [2], the IC50 was found to be 100 µg/mL.

`CC(=O)OCC1=C(C(=O)[O-])N2C(=O)C(=C=CBr)C2SC1.[Na+]` (stereo not drawn) [Compound 14, Sodium Salt of 7-(2'α-Bromovinylidene) Cephalosporanic Acid] registered an IC50 under setting [2] of 6160 µg/mL.

For `CC(=O)OCC1=C(C(=O)O)N2C(=O)C(=C=CC(C)(C)C)[C@H]2S(=O)(=O)C1` [Compound 16, Sodium Salt of 7-(2'α-t-Butylvinylidene) Cephalosporanic Acid Sulfone], the “fold better inhibitor than clavulanic acid” value is listed as around 350 fold, the “fold better inhibitor than tazobactam” value was “approximately five” and the “β-lactamase inhibition (in words)” value is “most potent inhibitor”. Besides, the IC50 (read-out: IC50 (converted)) was 0.135 µM.

With `CC(=O)OCC1=C(C(=O)O)N2C(=O)C(=C=CC(C)(C)C)[C@H]2SC1` [Compound 13, Sodium Salt of 7-(2'α-t-Butylvinylidene) Cephalosporanic Acid], the IC50 under setting [1] is 11.6 µM.

`CC(C)(C)C=C=C1C(=O)N2[C@@H](C(=O)O)C(C)(C)S(=O)(=O)[C@H]12` [6-(2'α-t-butylvinylidene) penam sulfone, reference compound]: the IC50 under setting [1] is 1.24 µM.

With `C=C=C1C(=O)N2C(C(=O)O)=C(COC(C)=O)CS(=O)(=O)[C@H]12` [Compound 17, 7-vinylidenecephem sulfone], the IC50 under setting [1] was 0.351 µM.
